Laboratory results published in patent US20260049071A1, “PROTEIN TYROSINE KINASE INHIBITOR AND MEDICAL USE THEREOF” (BEYANG THERAPEUTICS CO., LTD., priority 2022, published 2026).

What was measured:
KDR (VEGFR2) = KDR (VEGFR2) (Homo sapiens (Human), UniProt P35968); assay: Kinase inhibition, Mobility Shift Assay (VEGFR2); assay type: biochemical
Summary of the method: (§1)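 Mobility shift assay: each kinase preincubated 10 min at room temperature with compound, then reacted with FAM-labeled peptide, MgCl2 and ATP at 28° C. for varying times. Substrate-to-product conversion read on Caliper; % inhibition normalised to no-kinase and DMSO controls, and IC50 fitted.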

EGFR = EGFR (Homo sapiens (Human), UniProt P00533); assay: Kinase inhibition, Mobility Shift Assay (EGFR); assay type: biochemical
EGFR, sequence (P00533 25-1210): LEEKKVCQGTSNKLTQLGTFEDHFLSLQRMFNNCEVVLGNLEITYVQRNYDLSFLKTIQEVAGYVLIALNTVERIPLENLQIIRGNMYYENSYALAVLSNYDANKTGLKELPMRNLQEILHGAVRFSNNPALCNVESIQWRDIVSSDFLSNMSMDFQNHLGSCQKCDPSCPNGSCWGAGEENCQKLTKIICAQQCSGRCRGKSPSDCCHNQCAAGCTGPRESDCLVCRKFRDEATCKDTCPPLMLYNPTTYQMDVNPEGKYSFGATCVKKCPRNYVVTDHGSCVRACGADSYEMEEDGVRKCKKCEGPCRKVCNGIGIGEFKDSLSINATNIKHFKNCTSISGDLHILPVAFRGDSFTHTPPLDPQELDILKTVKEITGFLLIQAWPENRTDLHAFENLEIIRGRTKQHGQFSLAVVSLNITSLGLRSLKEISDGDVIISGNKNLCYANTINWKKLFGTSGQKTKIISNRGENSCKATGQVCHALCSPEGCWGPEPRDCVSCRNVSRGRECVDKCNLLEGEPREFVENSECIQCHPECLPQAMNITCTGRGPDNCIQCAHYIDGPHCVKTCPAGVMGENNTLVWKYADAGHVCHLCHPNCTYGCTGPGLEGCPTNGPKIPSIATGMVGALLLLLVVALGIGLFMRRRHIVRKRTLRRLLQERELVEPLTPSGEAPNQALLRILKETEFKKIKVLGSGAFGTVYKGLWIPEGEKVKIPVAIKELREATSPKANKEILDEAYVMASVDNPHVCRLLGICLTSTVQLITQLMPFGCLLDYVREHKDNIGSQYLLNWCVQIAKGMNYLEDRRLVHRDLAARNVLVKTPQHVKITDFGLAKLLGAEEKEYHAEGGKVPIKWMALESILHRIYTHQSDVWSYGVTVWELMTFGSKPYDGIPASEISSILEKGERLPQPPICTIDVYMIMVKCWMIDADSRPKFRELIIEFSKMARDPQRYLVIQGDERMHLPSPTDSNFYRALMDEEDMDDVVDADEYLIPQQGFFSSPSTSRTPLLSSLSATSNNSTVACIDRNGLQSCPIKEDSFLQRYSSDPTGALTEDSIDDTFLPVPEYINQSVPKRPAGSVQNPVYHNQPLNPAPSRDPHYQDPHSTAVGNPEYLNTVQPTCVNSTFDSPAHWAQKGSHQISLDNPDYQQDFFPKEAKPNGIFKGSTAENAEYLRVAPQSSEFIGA
Summary of the method: as §1

FLT1 (VEGFR1) = FLT1 (VEGFR1) (Homo sapiens (Human), UniProt P17948); assay: Kinase inhibition, Mobility Shift Assay (VEGFR1); assay type: biochemical
FLT1 (VEGFR1), sequence (P17948 27-1338): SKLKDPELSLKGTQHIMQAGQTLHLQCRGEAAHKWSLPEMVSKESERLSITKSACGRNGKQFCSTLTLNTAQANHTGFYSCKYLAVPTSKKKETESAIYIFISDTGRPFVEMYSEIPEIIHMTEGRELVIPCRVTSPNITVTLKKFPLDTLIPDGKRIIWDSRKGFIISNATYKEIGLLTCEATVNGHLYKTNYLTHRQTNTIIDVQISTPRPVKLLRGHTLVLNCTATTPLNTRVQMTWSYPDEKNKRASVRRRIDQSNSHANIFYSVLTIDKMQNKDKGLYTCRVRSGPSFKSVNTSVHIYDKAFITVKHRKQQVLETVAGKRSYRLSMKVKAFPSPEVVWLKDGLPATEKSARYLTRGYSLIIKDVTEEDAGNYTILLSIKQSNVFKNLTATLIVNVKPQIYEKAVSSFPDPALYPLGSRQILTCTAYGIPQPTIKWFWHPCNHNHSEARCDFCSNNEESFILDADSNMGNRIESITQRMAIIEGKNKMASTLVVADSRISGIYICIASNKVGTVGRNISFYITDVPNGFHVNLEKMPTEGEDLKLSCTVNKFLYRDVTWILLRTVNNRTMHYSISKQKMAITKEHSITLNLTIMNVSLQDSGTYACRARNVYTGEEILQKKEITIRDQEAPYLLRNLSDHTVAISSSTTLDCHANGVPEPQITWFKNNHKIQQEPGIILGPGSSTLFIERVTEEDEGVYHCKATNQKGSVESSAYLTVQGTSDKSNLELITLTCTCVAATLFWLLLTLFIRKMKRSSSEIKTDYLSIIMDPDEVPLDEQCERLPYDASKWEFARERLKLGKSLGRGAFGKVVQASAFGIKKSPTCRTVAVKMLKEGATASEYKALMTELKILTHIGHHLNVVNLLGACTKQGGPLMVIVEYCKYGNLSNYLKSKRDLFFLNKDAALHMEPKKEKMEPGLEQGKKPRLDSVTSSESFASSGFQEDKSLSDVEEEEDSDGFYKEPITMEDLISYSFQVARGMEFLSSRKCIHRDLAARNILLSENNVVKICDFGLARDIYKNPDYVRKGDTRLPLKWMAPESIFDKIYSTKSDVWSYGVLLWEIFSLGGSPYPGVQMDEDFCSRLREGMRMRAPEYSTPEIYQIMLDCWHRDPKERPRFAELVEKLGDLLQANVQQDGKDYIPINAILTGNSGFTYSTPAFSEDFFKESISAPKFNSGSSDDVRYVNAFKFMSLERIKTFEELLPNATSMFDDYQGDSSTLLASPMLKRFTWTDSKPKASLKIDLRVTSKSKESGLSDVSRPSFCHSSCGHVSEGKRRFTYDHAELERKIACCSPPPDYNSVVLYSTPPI
Description: (§2) This assay directly monitored the ability of compounds to inhibit kinase phosphorylation by measuring non-phosphorylated and phosphorylated substrates in kinase reactions by using Mobility Shift Assays/IMAP™ analysis.
(§3) Add the kinase and DTT to 1× kinase buffer to form a 2.5× kinase solution; transfer 10 μL of 2.5× kinase solution to a 384-well reaction plate and add 1× kinase buffer to negative control wells. Incubate the plate for 10 min at room temperature; add FAM-labeled peptides, MgCl2, ATP and other reagents to 1× kinase buffer to form a 2.5× substrate solution; transfer 10 μL of the above 2.5× substrate solution to the 384-well reaction plate; incubate the plate at 28° C. for different times, and add 25 μL of stop solution to the 384-well reaction plate to stop the reaction. Read the conversion ratio data on CaliperEZ Reader II. Convert conversion rates into inhibition ratio data.
(§4) “Min” indicates the readout of the control well without the addition of kinase; and “Max” indicates the readout of the control well with the addition of DMSO. Fit IC50 values with XLFit excel add-in version 5.4.0.8.
(§5) X indicates the log value of compound concentration, and Y indicates the inhibition ratio (% inhibition).

FLT4 (VEGFR3) = FLT4 (VEGFR3) (Homo sapiens (Human), UniProt P35916); assay: Kinase inhibition, Mobility Shift Assay (VEGFR3); assay type: biochemical
FLT4 (VEGFR3), sequence (P35916 25-1363): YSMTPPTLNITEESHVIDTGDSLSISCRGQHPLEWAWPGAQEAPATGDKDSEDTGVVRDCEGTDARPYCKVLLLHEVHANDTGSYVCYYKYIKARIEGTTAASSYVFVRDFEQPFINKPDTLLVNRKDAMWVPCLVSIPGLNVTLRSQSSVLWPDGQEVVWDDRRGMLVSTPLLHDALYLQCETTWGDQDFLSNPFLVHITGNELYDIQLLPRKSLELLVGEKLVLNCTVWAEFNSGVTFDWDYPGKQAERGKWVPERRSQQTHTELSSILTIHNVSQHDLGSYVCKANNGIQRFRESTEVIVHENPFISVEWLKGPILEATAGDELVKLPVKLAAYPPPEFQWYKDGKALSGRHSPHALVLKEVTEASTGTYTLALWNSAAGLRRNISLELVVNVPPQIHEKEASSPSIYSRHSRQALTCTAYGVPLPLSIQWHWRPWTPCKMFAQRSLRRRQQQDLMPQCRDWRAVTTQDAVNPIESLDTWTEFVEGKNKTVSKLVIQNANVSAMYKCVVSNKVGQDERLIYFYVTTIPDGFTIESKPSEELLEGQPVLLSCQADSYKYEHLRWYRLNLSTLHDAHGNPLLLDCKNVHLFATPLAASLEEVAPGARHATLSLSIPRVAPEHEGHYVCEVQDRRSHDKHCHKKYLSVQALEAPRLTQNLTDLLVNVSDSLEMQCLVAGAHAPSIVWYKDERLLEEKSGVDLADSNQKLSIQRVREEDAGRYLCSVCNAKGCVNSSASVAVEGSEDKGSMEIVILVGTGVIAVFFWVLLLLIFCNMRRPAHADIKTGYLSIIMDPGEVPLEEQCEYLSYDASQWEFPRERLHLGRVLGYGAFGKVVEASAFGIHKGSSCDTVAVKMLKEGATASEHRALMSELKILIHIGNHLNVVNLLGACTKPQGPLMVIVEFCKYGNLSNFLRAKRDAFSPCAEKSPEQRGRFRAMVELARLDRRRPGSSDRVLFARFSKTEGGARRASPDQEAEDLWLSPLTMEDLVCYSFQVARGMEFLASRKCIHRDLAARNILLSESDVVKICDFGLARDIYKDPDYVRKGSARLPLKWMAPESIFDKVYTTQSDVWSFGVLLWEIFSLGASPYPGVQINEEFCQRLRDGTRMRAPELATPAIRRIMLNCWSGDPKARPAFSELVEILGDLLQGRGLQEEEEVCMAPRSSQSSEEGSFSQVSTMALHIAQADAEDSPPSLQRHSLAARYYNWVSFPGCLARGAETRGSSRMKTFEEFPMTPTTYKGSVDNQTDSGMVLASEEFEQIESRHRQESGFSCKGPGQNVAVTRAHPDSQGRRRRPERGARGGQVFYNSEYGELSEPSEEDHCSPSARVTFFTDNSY
Description: as §2, §3, §4, §5

melanin = assay: Binding capacity of compounds to melanin; assay type: in vitro ADME; conditions: Sepia officinalis (cuttlefish), melanin suspension (1 mg/mL); 1 mg/mL melanin suspension in PBS pH 7.4, 2 μM compound, 2 h at 37° C.; read-out: Fu % (percentage of free drug, not bound to melanin)
Excerpt: Pigmented eye tissues contain melanin in intracellular melanosomes. Drugs bind to melanin to varying degrees, ranging from non-binding to extensive binding. Therefore, melanin binding is an important feature that affects drug delivery and biodistribution in the eye. The binding capacity of a compound to the melanin must be considered in the development of ophthalmic drugs.
Melanin was derived from the melanin of cuttlefish (Sepia officinalis) and was commercially available from Sigma Aldrich (St Louis, MO).
First, prepare 1 mg/mL melanin suspension with PBS (pH 7.4). As a washing step for the matrix, centrifuge the suspended particles for 5 min at 3000 rpm. Resuspend the resulting particles in a fresh PBS buffer, heat to 37° C. over continuous shaking and incubate it for 1 h. Accurately pipette 2 μL of the test stock solution (0.1 mM) into 98 μL of melanin suspension (1 mg/mL) to achieve a final incubation concentration of 2 μM. Similarly, accurately pipette 2 μL of the stock solution (0.1 mM) to 98 μL of PBS buffer (containing 0.1% BSA) as a blank control sample. Incubate the samples in a shaker (80-90 rpm) for 2 h at 37° C. Then, centrifuge the samples at room temperature. Pipette 50 μL of the supernatant and add 50 μL of precipitant (containing an internal standard). After protein precipitation of all the above samples, centrifuge the samples to collect the supernatants, dilute the supernatants with water (if necessary) and inject them for analysis. At the same time, measure the positive controls, including the high-binding compounds Sunitinib and chloroquine and the low-binding compound celecoxib. Establish an LC-MS/MS method for determining compound concentrations, and calibrate the peak area ratio of analyte/internal standard (Analyte/AIS) in the measured sample by the dilution factor to take it as an alternative concentration for the sample for data processing. The binding rate (Fh) of a compound in melanin was calculated as: […]
Ctest was the concentration of the compound in the melanin-incubated sample or the peak area ratio of the test compound to the internal standard. Ccontrol was the concentration of the compound in the blank control sample or the peak area ratio of the test compound to the internal standard. Percentage of free drug (Fu %)=100−Fb The binding rates of the compounds of the present invention to melanin are shown in the table below: […]

[1] = target: VEGFR2 autophosphorylation (pVEGFR2) in HUVEC cells (Homo sapiens (Human), UniProt P35968); assay: Inhibition of VEGF-induced VEGFR2 autophosphorylation in HUVEC cells (ELISA); assay type: cell-based; conditions: 50 ng/ml human VEGF, compound 1 h
Excerpt: Vascular endothelial growth factor receptor 2 (VEGFR2) is a primary receptor for VEGF-induced endothelial cell signaling. After ligand binding, VEGFR2 is autophosphorylated and activated. The main function of signaling from VEGFR2 is to induce vascularization during development and after tissue injury, and to bypass blocked blood vessels. Pathologically, VEGF and VEGFR2 are involved in tumor angiogenesis and vascular leakage. They are considered to be main participants in many different cancers and ocular diseases that accompany pathological neovascularization. This assay measured the ability of the compounds to inhibit VEGF-induced VEGFR2 autophosphorylation (pVEGFR2) in HUVEC cells by using ELISA.
Culture cells in a cell culture flask to reach a fusion degree of 60%-80% before cell inoculation. Dilute the cell suspension to […] with a pre-warmed complete medium. Add 80 μL of the cell suspension to all wells of a 96-well cell plate (Corning-3599); and incubate the plate overnight at 37° C. in the presence of 5% CO2. Dissolve the compound powder to 10 mM with DMSO and store it in a nitrogen cabinet. Compound dilution plate: Add a reference compound Ponatinib or a compound to be tested to a 96 V-well plate (Axygen-WIpp 2280) at concentrations achieved as follows: performing 3-fold gradient dilution starting from 5 mM (5 μL of 10 mM compound solution plus 5 μL of DMSO) for a total of 8 concentration points. […] Transfer 20 μL of the diluted compound from the intermediate plate to a cell plate. Then, incubate the cell plate for 1 h at 37° C. in the presence of 5% CO2. After the compound was treated for 1 h, add 25 μL of 250 ng/ml human VEGF at a final concentration of 50 ng/ml to a 96-well plate; and incubate the plate for 5 min at 37° C. in the presence of 5% CO2, centrifuge the plate for 10 min at 3,000 rpm, remove the medium and wash the cells once with 300 μL of pre-chilled DPBS per well. Then, centrifuge the plate for 10 min at 4,000 rpm, remove DPBS, and add 110 μL of pre-chilled 1× cell lysis buffer per well to the 96-well plate. Shake the plate for 40 min at 4° C. Then, freeze the plate in a refrigerator at −80° C. On the next day, remove the plate from the refrigerator at −80° C., thaw the plate, centrifuge the plate for 10 min at 3500 rpm, and add 100 μL of the supernatant per well to an ELISA plate. Seal the plate and incubate it for 2 h at 37° C. Wash the wells 4 times with 1× wash buffer. Add 100 μL of recombinant detection antibody per well. Seal the plate, incubate the plate for 1 h at 37° C., and repeat the step of plate washing. Add 100 μL of secondary antibody per well. Seal the plate, incubate the plate for 30 min at 37° C., and repeat the step of plate washing. Add 100 μL of TMB (protected from light) per well. Seal the plate, incubate the plate for 30 min at 37° C., and add 100 μL of the stop solution per well. Gently shake for 30 sec, measure the absorbance with a SpectraMax® 340 PC 384 Absorbance Microplate Reader within 30 min, and read an optical density value at 450 nm. Conduct data analysis using XL Fit software:
Conduct curve fitting using the 4 Parameter Logistic Model or Sigmoidal Dose-Response Model:
X indicating the log value of compound concentration, Y indicating the inhibition ratio (% inhibition), Top indicating the readout of the negative control wells, and bottom indicating the readout of the positive control well.

KDR (VEGFR2), sequence (P35968 790-1356): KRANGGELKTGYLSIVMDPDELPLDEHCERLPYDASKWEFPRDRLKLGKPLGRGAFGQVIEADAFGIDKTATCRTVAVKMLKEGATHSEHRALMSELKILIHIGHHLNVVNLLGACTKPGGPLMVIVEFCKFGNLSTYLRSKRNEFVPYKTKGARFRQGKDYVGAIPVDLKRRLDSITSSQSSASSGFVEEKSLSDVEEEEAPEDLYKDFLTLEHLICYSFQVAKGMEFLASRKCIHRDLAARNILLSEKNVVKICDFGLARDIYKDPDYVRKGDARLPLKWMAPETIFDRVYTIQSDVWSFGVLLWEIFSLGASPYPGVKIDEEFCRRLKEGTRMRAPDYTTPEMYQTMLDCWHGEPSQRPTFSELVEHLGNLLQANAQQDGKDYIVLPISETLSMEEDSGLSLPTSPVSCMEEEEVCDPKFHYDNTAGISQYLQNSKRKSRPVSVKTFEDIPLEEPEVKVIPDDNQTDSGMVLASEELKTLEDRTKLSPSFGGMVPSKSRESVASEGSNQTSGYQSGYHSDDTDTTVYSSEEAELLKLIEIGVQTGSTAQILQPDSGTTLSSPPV

IC50 (KDR (VEGFR2))	IC50 (EGFR)	IC50 (FLT1 (VEGFR1))	IC50 (FLT4 (VEGFR3))	fraction unbound at 2 h, 2 μM (melanin)	IC50 [1]	SMILES
> 100 nM	> 60000 nM	> 100 nM	> 100 nM	0.01 to 0.05		CNC(=O)c1ccccc1Sc1ccc2c(NC(=O)NCCN3CCN(C)CC3)n[nH]c2c1 [Compound I-31]
1 to 10 nM	6000 to 60000 nM	1 to 10 nM	1 to 10 nM	0.01 to 0.05		CNC(=O)c1ccccc1Sc1ccc2c(/C=C/c3cnn(CCCN4CCCC4)c3)n[nH]c2c1 [Compound I-32, N-methyl-2-({3-[(E)-2-{1-[3-(pyrrolidin-1-yl)propyl]-1H-pyrazole-4-yl}vinyl]-1H-indazol-6-yl}thio)benzamide]
1 to 10 nM	6000 to 60000 nM	1 to 10 nM	1 to 10 nM	> 0.05		CNC(=O)c1cccc(F)c1Sc1ccc2c(/C=C/c3ccc(OCCN4CCCC4)cn3)n[nH]c2c1 [Compound I-33, 3-fluoro-N-methyl-2-({3-[(E)-2-{5-[2-(pyrrolidin-1-yl)ethoxy]pyridin-2-yl}vinyl]-1H-indazol-6-yl}thio)benzamide]
1 to 10 nM	6000 to 60000 nM	1 to 10 nM	1 to 10 nM	0.01 to 0.05		CNC(=O)c1ccc(F)cc1Sc1ccc2c(/C=C/c3ccc(OCCN4CCCC4)cn3)n[nH]c2c1 [Compound I-35]
1 to 10 nM	6000 to 60000 nM	> 100 nM	1 to 10 nM	> 0.05		CNC(=O)c1c(F)cccc1Sc1ccc2c(/C=C/c3ccc(OCCN4CCCC4)cn3)n[nH]c2c1 [Compound I-36, 2-fluoro-N-methyl-6-({3-[(E)-2-{5-[2-(pyrrolidin-1-yl)ethoxy]pyridin-2-yl}vinyl]-1H-indazol-6-yl}thio)benzamide]
≤ 1 nM	600 to 6000 nM	≤ 1 nM	≤ 1 nM	0.01 to 0.05		CN1CCN(c2ccc(/C=C/c3n[nH]c4cc(Sc5ccccc5C(=O)NC5CC5)ccc34)nc2)CC1 [Compound I-38, N-cyclopropyl-2-({3-[(E)-2-[5-(4-methylpiperazin-1-yl)pyridin-2-yl]vinyl]-1H-indazol-6-yl}thio)benzamide]
1 to 10 nM	6000 to 60000 nM				1 to 5 nM	O=C(NC1CC1)c1ccccc1Sc1ccc2c(/C=C/c3cc(OCCN4CCCC4)ccn3)n[nH]c2c1 [Compound I-110, N-cyclopropyl-2-({3-[(E)-2-{4-[2-(pyrrolidin-1-yl)ethoxy]pyridin-2-yl}vinyl]-1H-indazol-6-yl}thio)benzamide]
1 to 10 nM	6000 to 60000 nM	1 to 10 nM	10 to 100 nM	0.01 to 0.05		O=C(NC1CC1)c1ccccc1Sc1ccc2c(/C=C/c3cc(CN4CCCC4)ccn3)n[nH]c2c1 [Compound I-115, N-cyclopropyl-2-({3-[(E)-2-{4-[(pyrrolidin-1-yl)methyl]pyridin-2-yl}vinyl]-1H-indazol-6-yl}thio)benzamide]
10 to 100 nM	> 60000 nM	10 to 100 nM	10 to 100 nM	0.01 to 0.05		CCNC(=O)c1cccc(F)c1Sc1ccc2c(/C=C/c3cc(CCCN4CCCC4)ccn3)n[nH]c2c1 [Compound I-116, N-ethyl-3-fluoro-2-({3-[(E)-2-{4-[3-(pyrrolidin-1-yl)propyl]pyridin-2-yl}vinyl]-1H-indazol-6-yl}thio)benzamide]
1 to 10 nM	> 60000 nM	1 to 10 nM	1 to 10 nM	0.01 to 0.05		O=C(NC1CC1)c1ccccc1Sc1ccc2c(/C=C/c3cccc(CN4CCCC4)n3)n[nH]c2c1 [Compound I-117, N-cyclopropyl-2-({3-[(E)-2-{6-[(pyrrolidin-1-yl)methyl]pyridin-2-yl}vinyl]-1H-indazol-6-yl}thio)benzamide]
1 to 10 nM	> 60000 nM	10 to 100 nM	10 to 100 nM	< 0.01		O=C(NC1CC1)c1cc(F)ccc1Sc1ccc2c(/C=C/c3cc(OCCN4CCCC4)ccn3)n[nH]c2c1 [Compound I-118, N-cyclopropyl-5-fluoro-2-({3-[(E)-2-{4-[2-(pyrrolidin-1-yl)ethoxy]pyridin-2-yl}vinyl]-1H-indazol-6-yl}thio)benzamide]

SMILES	IC50 (KDR (VEGFR2))	IC50 (EGFR)	IC50 (FLT1 (VEGFR1))	IC50 (FLT4 (VEGFR3))	fraction unbound at 2 h, 2 μM (melanin)	IC50 [1]
CNC(=O)c1ccccc1Sc1ccc2c(/C=C/c3ccc(OC[C@@H]4CCN(C)C4)cn3)n[nH]c2c1 [Compound I-39, N-methyl-2-({3-[(E)-2-(5-{[(3R)-1-methylpyrrolidin-3-yl]methoxy}pyridin-2-yl)vinyl]-1H-indazol-6-yl}thio)benzamide]	≤ 1 nM	6000 to 60000 nM	≤ 1 nM	1 to 10 nM	0.01 to 0.05	
